Tests used:
Type in all cases: cell-based, human
[1] = test system: colonic epithelial T84 cells (calcium-mediated chloride ion secretion); experiment: Inhibition of calcium-mediated chloride ion secretion (Table I summary)
Procedure, shortened: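 T84 monolayers (passages 18-48, 7-10 days on permeable supports) preincubated with 100, 200 or 400 μM Bt2-Ins(3,4,5,6)P4/AM for 30 min before Ussing-chamber mounting. After another 30 min, 0.1 mM histamine added; chloride secretion recorded as voltage-clamped short circuit current (Isc).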

Ins(3,4,5,6)P4 = experiment: Intracellular Ins(3,4,5,6)P4 level in (3H)-inositol labeled T84 cells; conditions: 400 μM D,L-Bt3 -Ins(1,3,4)P3 /AM
[2] = test system: T84 cells (carbachol-stimulated chloride ion secretion); experiment: Carbachol-stimulated (calcium-mediated) chloride ion secretion in T84 cells
Procedure: The cell permeable derivative D,L-Bt3 -Ins(1,3,4)P3 /AM was synthesized. Colonic epithelial T84 cells were preincubated for 30 min with 400 μM D,L-Bt3 -Ins(1,3,4)P3 /AM prior to mounting in Ussing chambers and measuring ΔIsc. At 10 min, carbachol (10^-4 M) was added to transiently stimulate calcium-mediated chloride ion secretion. Data were the average of 8 experiments with p<0.04, unpaired, two-sided student's t-test. […]

[3] = test system: T84 cells (histamine-stimulated chloride ion secretion); experiment: Histamine-stimulated chloride ion secretion (short circuit current) in T84 monolayers
Procedure: Enantiomerically pure 1,2-Bt2 -Ins(3,4,5,6)P4 /AM was synthesized to determine if 1,2-Bt2 -Ins(3,4,5,6)P4 /AM mediates the uncoupling of chloride ion secretion from intracellular calcium concentrations. […] After 7-10 days of incubation on SNAP-WELLS (Corning Costar; Cambridge, Mass.), monolayers had formed tight junctions. Cell monolayers were preincubated with 100, 200 or 400 μM Bt2 -Ins(3,4,5,6)P4 /AM for 30 min prior to mounting. After an additional 30 min, 0.1 mM histamine was added and chloride ion secretion was monitored. Chloride ion secretion was measured as short circuit current (Isc) across T84 monolayers grown to confluence and mounted in Ussing chambers equipped with voltage clamps (Physiologic Instruments; San Diego, Calif.). Data was acquired and analyzed using "Acquire and Analyze" software (Physiologic Instruments).
Initial studies were directed towards understanding structural determinants of Ins(3,4,5,6)P4 responsible for the inhibitory effect on calcium-mediated chloride ion secretion. A series of cell permeable inositol polyphosphate derivatives were synthesized. These derivatives contained either one or two non-hydrolyzable chemical groups on the 1, 2 or 3 position. T84 monolayers were preincubated for 30 minutes with 200 μM of 2-Bt-1-Me-Ins(3,4,5,6)P4 /AM, Me2 -Ins(3,4,5,6)P4 /AM, Me2 -Ins(1,4,5,6)P4 /AM or 2-Bt-3-Me-Ins(1,4,5,6)P4 /AM.
Following the incubation, cells were mounted in Ussing chambers. Calcium-mediated chloride ion secretion was stimulated with histamine (10^-4 M). Control values were the response to histamine in coincubated monolayers. Data are represented as mean peak ΔIsc ±SEM, expressed as % control for 8 to 10 experiments. Significant differences were identified using the Student's two-tailed t test.

intracellular calcium = experiment: Intracellular calcium concentration in treated cells
Procedure: Elevation in intracellular calcium concentration leads to increased chloride ion secretion. To ensure that none of the effects of the inositol polyphosphate derivatives on chloride ion secretion were due to changes in calcium levels, the concentration of intracellular calcium was measured in cells treated with the inositol polyphosphate derivatives. […] None of the compounds tested altered intracellular calcium levels by themselves or modified levels of intracellular calcium stimulated with carbachol or thapsigargin. Therefore, the effects of inositol polyphosphate derivatives on chloride ion secretion are not due to any effect on intracellular calcium concentrations.

[4] = test system: T84 cells (EGF induced inhibition of chloride ion secretion); experiment: EGF induced inhibition of carbachol-stimulated chloride ion secretion in T84 cells and its reversal; conditions: EGF 16.3 nM, carbachol 100 μM
Procedure: After an additional 15 min incubation, 100 μM carbachol was added to acutely elevate intracellular calcium concentrations. Controls also were stimulated with carbachol but were not pretreated with EGF. Data are the means of duplicate measurements from a representative experiment (total of three experiments).

[5] = test system: T84 cells (PtdInsP3-mediated decrease in chloride ion secretion); experiment: Reversal of PtdInsP3-mediated decrease in chloride ion secretion in T84 cells; conditions: FIG. 7d, 7e
Procedure: T84 cells also were preincubated with cell permeable Ins(1,4,5,6)P4 derivatives to determine whether Ins(1,4,5,6)P4 can reverse PtdInsP3 -mediated decreases in chloride ion secretion.

[6] = test system: T84 cells (EGF inhibition of cyclic AMP-mediated chloride ion secretion); experiment: EGF inhibition of cyclic AMP-mediated chloride ion secretion, reversal

SMILES	Mechanism and Inositol Polyphosphate Pathway Affected ([1]; pathway: Ins (3,4,5,6)P4)	increase in Ins(3,4,5,6)P4 (Ins(3,4,5,6)P4)	peak ΔIsc ([2]; 400 μM, 30 min preincubation, carbachol 10^-4 M, 8 experiments, control 15.2±2.8, p<0.04)	inhibition at 400 µM ([2]; Homo sapiens, 0.5 h, 400 μM D,L-Bt3 -Ins(1,3,4)P3 /AM, read-out: decrease of calcium-mediated chloride ion secretion) [%]	effect on carbachol-stimulated / calcium-mediated chloride ion secretion (in words) ([2]; T84 cells, preincubation)	Mechanism and Inositol Polyphosphate Pathway Affected ([1]; pathway: PtdInsP3)	activity at 400 µM ([3]; Homo sapiens, T84, 0.5 h, 400 μM compound alone, mean ± SEM, read-out: Peak ΔIsc (% Control) after histamine (100 μM)) [%]	effect on histamine-stimulated / calcium-mediated chloride ion secretion (in words) ([3]; T84 cells)	effect on intracellular calcium (in words) (intracellular calcium; alone)	effect on calcium response to thapsigargin or carbachol (in words) (intracellular calcium; thapsigargin or carbachol stimulated)	effect on carbachol-stimulated chloride ion secretion / EGF induced inhibition (in words) [4]	effect on carbachol-stimulated chloride ion secretion / EGF induced inhibition (in words) ([4]; listed as Bt2 Ins(1,4,5,6)P4 /AM)	effect on PtdInsP3-mediated decrease in chloride ion secretion (in words) [5]	reversal of EGF inhibition of cyclic AMP-mediated chloride ion secretion (in words) [6]
CCCC(=O)O[C@@H]1[C@@H](OC(=O)CCC)[C@H](OP(=O)(OCOC(C)=O)OCOC(C)=O)[C@@H](OP(=O)(OCOC(C)=O)OCOC(C)=O)[C@@H](OC(=O)CCC)[C@H]1OP(=O)(OCOC(C)=O)OCOC(C)=O (relative stereo) [D,L-Bt3 -Ins(1,3,4)P3 /AM, D,L-2,5,6-tri-O-butyryl-myo-inositol 1,3,4-trisphosphate hex (acetoxymethyl) ester]	Agonist of	three-fold increase	7.9±1.6	~50	inhibits calcium-mediated chloride ion secretion	–	–	–	–	–	–	–	–	–
CCCC(=O)O[C@@H]1[C@H](OC(=O)CCC)[C@@H](OP(=O)(OCOC(C)=O)OCOC(C)=O)[C@H](OP(=O)(OCOC(C)=O)OCOC(C)=O)[C@@H](OP(=O)(OCOC(C)=O)OCOC(C)=O)[C@@H]1OP(=O)(OCOC(C)=O)OCOC(C)=O [Bt2 -Ins(1,4,5,6)P4 /AM, 2,3-di-O butyryl-myo-inositol 1,4,5,6-TKphosphate oct (acetoxymethyl) ester]	–	–	–	–	–	Antagonist of	138 ± 20.7	did not inhibit chloride ion secretion and in fact led to a slight increase in chloride ion secretion	did not elevate intracellular calcium	did not elevate intracellular calcium or the calcium response to thapsigargin	enhances chloride ion secretion	significantly reversed EGF induced inhibition of chloride ion secretion	enhances chloride ion secretion	did not reverse EGF inhibition of cyclic AMP-mediated chloride ion secretion
